# Data published in US11571403B2, “Methods for the treatment of non-alcoholic steatohepatitis” (Eiger Biopharmaceuticals, Inc., priority 2016, dated 2023).
# What was measured:
# [1] = system: STAM mouse model for NASH; experiment: Biochemistry: plasma ALT and liver triglyceride, STAM mouse NASH model (Example 1); format: in vivo; details: 7 to 9 weeks of age
# Source text: (§1) The STAM™ mouse is a model for NASH created by a combination of chemical and dietary interventions in C57BL/6 mice that manifest NASH at about 8 weeks, which progresses to fibrosis at about 12 weeks and then progresses to HCC at about 16 weeks. See, Saito et al., Sci. Rep. 2015, 5:12466.
# (§2) In the study, the control groups were as follows: (i) Untreated Disease Control—a group of STAM mice injected with streptozotocin (STZ, Sigma-Aldrich, USA) at 2 days old, and fed a high fat diet (HFD, 57 kcal % fat, Cat #HFD32, CLEA Japan, Japan) starting at 4 weeks old; and (ii) Positive Control—a group of STAM mice treated with telmisartan (10 mg/kg QD from 7 to 9 weeks). In addition to these control groups, test groups of STAM mice treated with a low dose of ubenimex (5 mg/kg ubenimex BID from 7 to 9 weeks) or a high dose of ubenimex (25 mg/kg BID from 7 to 9 weeks), were included in the study. The low dose is equivalent to a human dose of 30 mg BID. The high dose is equivalent to a human dose of 150 mg BID. The viability, clinical signs and behavior were monitored daily, including body weight, signs of toxicity, moribundity and mortality. The mice were maintained in a SPF facility under controlled conditions of temperature (23±2° C.), humidity (45±10%), lighting (12-hour artificial light and dark cycles; light from 8:00 to 20:00) and air exchange. A high pressure was maintained in the experimental room to prevent contamination of the facility. The mice were housed in TPX cages (CLEA Japan) with a maximum of 4 mice per case.
# (§3) All groups of mice were sacrificed at 9 weeks. Once sacrificed, the body weight of each mouse was recorded. The liver of each mouse was removed and weighed. The liver-to-body weight ratio was determined for each mouse. Blood serum levels of CK-18, ALT, and liver triglycerides were determined for each mouse. The livers were then sectioned and stained with hematoxylin and eosin (“HE”) stain, as well as Sirius red staining, to determine liver steatosis (ballooning) and fibrosis, respectively.
# [2] = system: STAM model of NASH fibrosis; experiment: NAFLD Activity Score by HE staining, STAM model of NASH with fibrosis (Example 3); format: in vivo, mouse; details: for Steatosis score 0, number of mice: score 0 = <5%; for Hepatocyte ballooning score 0, number of mice: score 0 = None; for Steatosis score 1, number of mice: score 1 = 5-33%; for Hepatocyte ballooning score 1, number of mice: score 1 = Few balloon cells; for Lobular inflammation score 2, number of mice: score 2 = 2-4 foci/200x; for Steatosis score 2, number of mice: score 2 = >33-66%; for Hepatocyte ballooning score 2, number of mice: score 2 = Many cells/prominent ballooning; for Lobular inflammation score 3, number of mice: score 3 = >4 foci/200x
# Method: (§4) Ubenimex or telmisartan was administered orally in a volume at 10 mL/kg. Ubenimex was administered at a dose of 5 mg/kg once daily or twice daily. Telmisartan was administered at a dose of 5 mg/kg once daily.
# For HE staining, sections were cut from paraffin blocks of liver tissue prefixed in Bouin's solution and stained with Lillie-Mayer's hematoxylin (Muto Pure Chemicals Co., Ltd., Japan) and eosin solution (Wako Pure Chemical Industries, Ltd., Japan). NAFLD Activity Score (NAS) was calculated according to the criteria of Kleiner (Kleiner et al., Hepatology, 2005, 41:1313). To visualize collagen deposition, Bouin's fixed liver sections were stained using picro-Sirius red solution (Waldeck, Germany). For quantitative analysis of fibrosis area, bright field images of Sirius red-staining sections were captured around the central vein using a digital camera (DFC295; Leica, Germany) at 200-fold magnification, and the positive areas in 5 fields/section were measured using ImageJ software (National Institutes of Health, USA).
# Statistical tests: Statistical analyses were performed using Bonferroni Multiple Comparison Test on GraphPad Prism 6 (GraphPad Software Inc., USA). P values <0.05 were considered statistically significant. A trend or tendency was assumed when a one-tailed t-test returned P values <0.1. Results were expressed as mean±SD.
# (§5) Study groups: The following study groups were used. Group 1 (Vehicle): 8 NASH mice were orally administered vehicle (RO water) in a volume of 10 mL/kg twice daily from 6 to 11 weeks of age. Group 2 (Ubenimex QD for 5 weeks): 8 NASH mice were orally administered vehicle supplemented with ubenimex at a dose of 5 mg/kg once daily from 6 to 11 weeks of age. Group 3 (Ubenimex BID for 5 weeks): 8 NASH mice were orally administered vehicle supplemented with ubenimex at a dose of 5 mg/kg twice daily from 6 to 11 weeks of age. Group 4 (Ubenimex BID for 2 weeks): 8 NASH mice were orally administered vehicle supplemented with ubenimex at a dose of 5 mg/kg twice daily from 9 to 11 weeks of age. Group 5 (Telmisartan for 5 weeks): 8 NASH mice were orally administered pure water supplemented with telmisartan at a dose of 5 mg/kg once daily from 6 to 11 weeks of age.
# [3] = system: STAM mouse model for NASH; experiment: NAFLD Activity Score by HE staining, STAM mouse NASH model (Example 1); format: in vivo; details: for Hepatocyte ballooning score 0, number of mice: score 0 = None; for Steatosis score 1, number of mice: score 1 = 5-33%; for Hepatocyte ballooning score 1, number of mice: score 1 = Few balloon cells; for Lobular inflammation score 2, number of mice: score 2 = 2-4 foci/200x; for Lobular inflammation score 3, number of mice: score 3 = >4 foci/200x
# Source text: as §1, §2, §3
# [4] = system: STAM mouse model for NASH; experiment: Plasma CK-18, STAM mouse NASH model (Example 1); format: in vivo
# Source text: as §1, §2, §3
# [5] = system: STAM mouse model for NASH; experiment: Fibrosis area by Sirius red staining, STAM mouse NASH model (Example 1); format: in vivo; details: 7 to 9 weeks of age
# Source text: as §1, §2, §3
# [6] = system: STAM model of NASH fibrosis; experiment: Biochemistry: plasma ALT and liver triglyceride, STAM model of NASH with fibrosis (Example 3); format: in vivo, mouse
# Method: as §4
# For plasma biochemistry, blood was collected in polypropylene tubes with anticoagulant (Novo-Heparin, Mochida Pharmaceutical Co. Ltd., Japan) and centrifuged at 1,000×g for 15 minutes at 4° C. The supernatant was collected and stored at −80° C. until use. Plasma ALT level was measured by FUJI DRI-CHEM 7000 (Fujifilm, Japan).
# Liver total lipid-extracts were obtained by Folch's method (Folch et al., J. Biol Chem, 1957, 226:497). Liver samples were homogenized in chloroform-methanol (2:1 v/v) and incubated overnight at room temperature. After washing with chloroform-methanol-water (8:4:3 v/v/v), the extracts were evaporated to dryness and dissolved in isopropanol. Liver triglyceride content was measured by Triglyceride E-test (Wako Pure Chemical Industries, Ltd., Japan).
# as §5
# [7] = ubenimex 5 mg/kg BID oral, 6 to 11 weeks of age
# [8] = ubenimex 5 mg/kg BID oral, 9 to 11 weeks of age
# [9] = ubenimex 5 mg/kg QD oral, 6 to 11 weeks of age
# [10] = ubenimex 5 mg/kg BID, 7 to 9 weeks of age
# [11] = ubenimex 25 mg/kg BID, 7 to 9 weeks of age
smiles,measurement,setting,value
"CC(C)C[C@H](NC(=O)[C@@H](O)[C@H](N)Cc1ccccc1)C(=O)O [Ubenimex, (2S)-2-[[(2S,3R)-3-amino-2-hydroxy-4-phenylbutanoyl]amino]-4-methylpentanoic acid]",Liver triglyercide (mean ± SD),[1]; ubenimex 5 mg/kg BID,50.0 ± 22.7 mg/g liver
same,Plasma ALT (mean ± SD),[1]; ubenimex 5 mg/kg BID,59 ± 22 U/L
same,Liver triglyercide (mean ± SD),[1]; ubenimex 25 mg/kg BID,34.8 ± 22.2 mg/g liver
same,Plasma ALT (mean ± SD),[1]; ubenimex 25 mg/kg BID,62 ± 11 U/L
same,"Steatosis score 0, number of mice",[2]; [7],1
same,"Steatosis score 0, number of mice",[2]; [8],1
same,"Hepatocyte ballooning score 0, number of mice",[2]; [7],5
same,"Hepatocyte ballooning score 0, number of mice",[2]; [8],4
same,"Hepatocyte ballooning score 0, number of mice",[2]; [9],2
same,"Steatosis score 1, number of mice",[2]; [7],4
same,"Steatosis score 1, number of mice",[2]; [8],4
same,"Steatosis score 1, number of mice",[2]; [9],6
same,"Lobular inflammation score 1, number of mice","[2]; score 1 = <2 foci/200x, ubenimex 5 mg/kg QD oral, 6 to 11 weeks of age",1
same,"Hepatocyte ballooning score 1, number of mice",[2]; [8],1
same,"Hepatocyte ballooning score 1, number of mice",[2]; [9],4
same,"Lobular inflammation score 2, number of mice",[2]; [7],2
same,"Lobular inflammation score 2, number of mice",[2]; [8],4
same,"Lobular inflammation score 2, number of mice",[2]; [9],3
same,"Steatosis score 2, number of mice",[2]; [7],1
same,"Steatosis score 2, number of mice",[2]; [8],1
same,"Hepatocyte ballooning score 2, number of mice",[2]; [7],1
same,"Hepatocyte ballooning score 2, number of mice",[2]; [8],1
same,"Lobular inflammation score 3, number of mice",[2]; [7],4
same,"Lobular inflammation score 3, number of mice",[2]; [8],2
same,"Lobular inflammation score 3, number of mice",[2]; [9],2
same,NAS (mean ± SD),[2]; [7],4.0 ± 1.7
same,NAS (mean ± SD),[2]; [8],3.8 ± 1.0
same,NAS (mean ± SD),[2]; [9],3.8 ± 0.8
same,Hepatocyte ballooning compared with the control group,"[3]; high and low dose ubenimex groups (25 and 5 mg/kg BID, 7 to 9 weeks)",significantly decreased
same,"Steatosis score 0, number of mice","[3]; score 0 = <5%, ubenimex 5 mg/kg BID, 7 to 9 weeks of age",1
same,"Hepatocyte ballooning score 0, number of mice",[3]; [10],4
same,"Hepatocyte ballooning score 0, number of mice",[3]; [11],5
same,"Steatosis score 1, number of mice",[3]; [10],5
same,"Steatosis score 1, number of mice",[3]; [11],7
same,"Lobular inflammation score 1, number of mice","[3]; score 1 = <2 foci/200x, ubenimex 5 mg/kg BID, 7 to 9 weeks of age",1
same,"Hepatocyte ballooning score 1, number of mice",[3]; [10],2
same,"Hepatocyte ballooning score 1, number of mice",[3]; [11],2
same,"Lobular inflammation score 2, number of mice",[3]; [10],3
same,"Lobular inflammation score 2, number of mice",[3]; [11],5
same,"Lobular inflammation score 3, number of mice",[3]; [10],2
same,"Lobular inflammation score 3, number of mice",[3]; [11],2
same,NAS (mean ± SD),[3]; [10],3.3 ± 0.5
same,NAS (mean ± SD),[3]; [11],3.6 ± 0.5
same,Plasma CK-18,"[4]; high dose ubenimex group (25 mg/kg BID, 7 to 9 weeks)",230.8±28.6 mIU/mL
same,Plasma CK-18,"[4]; low dose ubenimex group (5 mg/kg BID, 7 to 9 weeks)",238.5±7.7 mIU/mL
same,"Sirius red-positive area (fibrosis area, mean ± SD)",[5]; ubenimex 5 mg/kg BID,0.80 ± 0.16%
same,"Sirius red-positive area (fibrosis area, mean ± SD)",[5]; ubenimex 25 mg/kg BID,1.05 ± 0.14%
same,Liver triglyceride (mean ± SD),[6]; [7],59.6 ± 21.4 mg/g liver
same,Plasma ALT (mean ± SD),[6]; [7],52 ± 21 U/L
same,Liver triglyceride (mean ± SD),[6]; [8],62.0 ± 33.5 mg/g liver
same,Plasma ALT (mean ± SD),[6]; [8],47 ± 24 U/L
same,Liver triglyceride (mean ± SD),[6]; [9],58.6 ± 24.4 mg/g liver
same,Plasma ALT (mean ± SD),[6]; [9],85 ± 64 U/L
